Experimental data reported in patent US20250171556A1, “MULTISPECIFIC ANTIBODIES FOR TREATING CD47-ASSOCIATED DISEASES” (Virtuoso BINco, Inc., priority 2021, published 2025).

Experiments:
DLD-1 tumor cells = test: DLD-1 colorectal cancer xenograft model; assay type: in vivo, mouse; settings: 5 doses, irinotecan 30 mg/kg ip twice per week
Protocol: DLD-1 tumor cells were cultured in RPMI 1640 medium supplemented with 10% FBS at 37° C. in an atmosphere of 5% CO2 in air. Female Balb/c nude mice (Shanghai Lingchang Laboratory Animal Technology Co., Ltd.) of 6-8 weeks in age were inoculated subcutaneously with 5×10^6 cells in 0.1 mL PBS for tumor development. Once the average tumor volume reached approximately 150-200 mm^3, the animals were randomized to 6 animals per group and started treatment. Oxaliplatin and 5-fluorouracil (5-FU) were administered through intraperitoneal injection three times per week at a dose of 8 mg/kg and 35 mg/kg, respectively. A total of 4 doses of oxaliplatin and 5 doses of 5-FU were given. Irinotecan was administered through intraperitoneal injection twice per week at a dose of 30 mg/kg for a total of 6 doses. CD47×EpCAM_v5 bispecific antibody was administered through bolus tail vein injection at 20 mg/kg weekly for a total of 5 doses. For the combination groups, the route and dosing schedule were the same as in the single agent treatment groups. Tumor volume was measured twice weekly.
DLD-1 xenograft model was established as described in Example 13. Treatment was initiated once the average tumor volume reached approximately 150-200 mm^3. Irinotecan was administered through intraperitoneal injection twice per week at a dose of 30 mg/kg for a total of 5 doses. […]

Hep3B2.1-7 tumor cells = test: Hep3B2.1-7 hepatocellular carcinoma xenograft model; assay type: in vivo, mouse; settings: CD47×EpCAM_v5 20 mg/kg iv weekly, 4 doses, irinotecan 15 mg/kg ip twice per week
Protocol: Hep3B2.1-7 tumor cells were cultured in EMEM medium supplemented with 10% FBS at 37° C. in an atmosphere containing 5% CO2 in air. Female Balb/c nude mice (Shanghai Lingchang Laboratory Animal Technology Co., Ltd.) of 6-8 weeks in age were inoculated subcutaneously with 8×10^6 cells in 0.1 mL of PBS for tumor development. Once the average tumor volume reached approximately 150-200 mm^3, the animals were randomized to 6 animals per group and started treatment. Irinotecan was administered through intraperitoneal injection twice per week at a dose of 15 mg/kg for a total of 4 doses. CD47×EpCAM_v5 bispecific antibody was administered through bolus tail vein injection at 20 mg/kg weekly for a total of 4 doses. Combination groups followed the same dosing schedule and route of administration as their corresponding monotherapy groups. Tumor volume was measured twice weekly.

CCc1c2c(nc3ccc(OC(=O)N4CCC(N5CCCCC5)CC4)cc13)-c1cc3c(c(=O)n1C2)COC(=O)[C@]3(O)CC [irinotecan, reference compound]
Tumor growth in DLD-1 model, single agent (Example 13) (DLD-1 tumor cells; CD47×EpCAM_v5 20 mg/kg iv weekly, 6 doses): not very effective
Tumor growth in DLD-1 model, single agent (Example 14) (DLD-1 tumor cells; antibodies 20 mg/kg iv weekly): partial tumor growth inhibition
Tumor growth in Hep3B2.1-7 model, single agent (Hep3B2.1-7 tumor cells): slowed tumor growth but did not inhibit it
